For the test, the target named is E3 ubiquitin-protein ligase Mdm2 (Homo sapiens) (UniProt Q00987). Kind of test: wild-type MDM2 reporter signal enhancers, dose response, cell-based, luciferase luminescence (AID 1444). To be noted: MDM2 wild-type luciferase reporter cells, 2 h. (Reporter assays use an easily measured gene product as a stand-in for the process of interest.)

The source of these data is PubChem BioAssay AID1444 (PCMD, 2008).

Structures are written as SMILES.

Usually EC50 stands for the midpoint of the concentration-response curve.

Chain of E3 ubiquitin-protein ligase Mdm2 (Homo sapiens) (Q00987 whole entry, looked up): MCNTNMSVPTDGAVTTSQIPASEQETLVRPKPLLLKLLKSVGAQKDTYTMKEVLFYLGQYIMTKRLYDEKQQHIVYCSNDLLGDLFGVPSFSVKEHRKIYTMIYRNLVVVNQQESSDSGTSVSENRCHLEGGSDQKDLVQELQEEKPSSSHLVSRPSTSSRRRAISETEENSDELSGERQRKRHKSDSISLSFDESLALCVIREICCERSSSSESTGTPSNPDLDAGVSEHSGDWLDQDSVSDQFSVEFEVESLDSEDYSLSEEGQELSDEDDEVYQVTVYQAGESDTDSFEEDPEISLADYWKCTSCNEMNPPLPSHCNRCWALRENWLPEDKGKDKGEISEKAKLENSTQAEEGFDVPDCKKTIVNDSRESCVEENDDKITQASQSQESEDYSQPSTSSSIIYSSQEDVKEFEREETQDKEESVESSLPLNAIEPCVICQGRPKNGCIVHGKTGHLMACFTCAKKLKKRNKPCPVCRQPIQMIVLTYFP

As for `CC1=NN(c2cccc(C(=O)O)c2)C(=O)/C1=C\C=C/c1ccccc1`, the EC50 is 720 nM.
